According to ChEMBL document CHEMBL4308841, “Synthesis, in vitro antiproliferative activity, and kinase inhibitory effects of pyrazole-containing diarylureas and diarylamides” (Eur J Med Chem, 2018):

Key:
SK-OV-3 = assay: Growth inhibition of human SKOV3 cells assessed as cell growth at 10 uM incubated for 48 hrs by sulforhodamine B assay relative to control; format: functional; settings: SK-OV-3, 48 h, read-out: Activity
SF-268 = assay: Growth inhibition of human SF268 cells assessed as cell growth at 10 uM incubated for 48 hrs by sulforhodamine B assay relative to control; format: functional; settings: SF-268, 48 h, read-out: Activity
Hs-578T = assay: Growth inhibition of human Hs578T cells assessed as cell growth at 10 uM incubated for 48 hrs by sulforhodamine B assay relative to control; format: functional; settings: read-out: Activity
LOX IMVI = assay: Growth inhibition of human LOXIMVI cells assessed as cell growth at 10 uM incubated for 48 hrs by sulforhodamine B assay relative to control; format: functional; settings: read-out: Activity
UO-31 = assay: Growth inhibition of human UO31 cells assessed as cell growth at 0.01 uM incubated for 48 hrs by sulforhodamine B assay relative to control; format: functional; settings: UO-31, 48 h, read-out: Activity
M14 [1] = assay: Growth inhibition of human M14 cells assessed as cell growth at 0.01 uM incubated for 48 hrs by sulforhodamine B assay relative to control; format: functional; settings: M14, 48 h, read-out: Activity
K562 = assay: Growth inhibition of human K562 cells assessed as cell growth at 10 uM incubated for 48 hrs by sulforhodamine B assay relative to control; format: functional; settings: K562, 48 h, read-out: Activity
OVCAR-4 [2] = assay: Growth inhibition of human OVCAR4 cells assessed as cell growth at 10 uM incubated for 48 hrs by sulforhodamine B assay relative to control; format: functional; settings: OVCAR-4, 48 h, read-out: Activity
OVCAR-4 [3] = assay: Growth inhibition of human OVCAR4 cells incubated for 48 hrs by sulforhodamine B assay; format: functional, cell-based; settings: OVCAR-4, 48 h
RPMI-8226 = assay: Growth inhibition of human RPMI8226 cells assessed as cell growth at 10 uM incubated for 48 hrs by sulforhodamine B assay relative to control; format: functional; settings: RPMI-8226, 48 h, read-out: Activity
SR = assay: Growth inhibition of human SR cells assessed as cell growth at 10 uM incubated for 48 hrs by sulforhodamine B assay relative to control; format: functional; settings: read-out: Activity
ACHN [4] = assay: Growth inhibition of human ACHN cells incubated for 48 hrs by sulforhodamine B assay; format: functional, cell-based
M14 [5] = assay: Growth inhibition of human M14 cells assessed as cell growth at 10 uM incubated for 48 hrs by sulforhodamine B assay relative to control; format: functional; settings: M14, 48 h, read-out: Activity
HCC 2998 [6] = assay: Growth inhibition of human HCC2998 cells assessed as cell growth at 10 uM incubated for 48 hrs by sulforhodamine B assay relative to control; format: functional; settings: HCC 2998, 48 h, read-out: Activity
SF-295 = assay: Growth inhibition of human SF295 cells assessed as cell growth at 10 uM incubated for 48 hrs by sulforhodamine B assay relative to control; format: functional; settings: SF-295, 48 h, read-out: Activity
MDA-MB-468 [7] = assay: Growth inhibition of human MDA-MB-468 cells assessed as cell growth at 10 uM incubated for 48 hrs by sulforhodamine B assay relative to control; format: functional; settings: MDA-MB-468, 48 h, read-out: Activity
HOP-62 = assay: Growth inhibition of human HOP62 cells assessed as cell growth at 10 uM incubated for 48 hrs by sulforhodamine B assay relative to control; format: functional; settings: HOP-62, 48 h, read-out: Activity
HCT-15 = assay: Growth inhibition of human HCT15 cells assessed as cell growth at 10 uM incubated for 48 hrs by sulforhodamine B assay relative to control; format: functional; settings: HCT-15, 48 h, read-out: Activity
U-251 [8] = assay: Growth inhibition of human U251 cells incubated for 48 hrs by sulforhodamine B assay; format: functional, cell-based; settings: U-251, 48 h
MDA-MB-435 = assay: Growth inhibition of human MDA-MB-435 cells assessed as cell growth at 10 uM incubated for 48 hrs by sulforhodamine B assay relative to control; format: functional; settings: MDA-MB-435, 48 h, read-out: Activity
Malme-3M = assay: Growth inhibition of human MALME-3M cells assessed as cell growth at 10 uM incubated for 48 hrs by sulforhodamine B assay relative to control; format: functional; settings: read-out: Activity
ACHN [9] = assay: Growth inhibition of human ACHN cells assessed as cell growth at 100 uM incubated for 48 hrs by sulforhodamine B assay relative to control; format: functional; settings: read-out: Activity
U-251 [10] = assay: Growth inhibition of human U251 cells assessed as cell growth at 1 uM incubated for 48 hrs by sulforhodamine B assay relative to control; format: functional; settings: U-251, 48 h, read-out: Activity
UACC-62 = assay: Growth inhibition of human UACC62 cells assessed as cell growth at 0.1 uM incubated for 48 hrs by sulforhodamine B assay relative to control; format: functional; settings: UACC-62, 48 h, read-out: Activity
SNB-19 = assay: Growth inhibition of human SNB19 cells assessed as cell growth at 10 uM incubated for 48 hrs by sulforhodamine B assay relative to control; format: functional; settings: SNB-19, 48 h, read-out: Activity
MDA-MB-468 [11] = assay: Growth inhibition of human MDA-MB-468 cells assessed as cell growth at 100 uM incubated for 48 hrs by sulforhodamine B assay relative to control; format: functional; settings: MDA-MB-468, 48 h, read-out: Activity
UACC-257 = assay: Growth inhibition of human UACC257 cells assessed as cell growth at 10 uM incubated for 48 hrs by sulforhodamine B assay relative to control; format: functional; settings: UACC-257, 48 h, read-out: Activity
NCI/ADR-RES = assay: Growth inhibition of human NCI/ADR-RES cells assessed as cell growth at 10 uM incubated for 48 hrs by sulforhodamine B assay relative to control; format: functional; settings: read-out: Activity
HL-60(TB) = assay: Growth inhibition of human HL-60(TB) cells assessed as cell growth at 10 uM incubated for 48 hrs by sulforhodamine B assay relative to control; format: functional; settings: HL-60, 48 h, read-out: Activity
HCC 2998 [12] = assay: Growth inhibition of human HCC2998 cells incubated for 48 hrs by sulforhodamine B assay; format: functional, cell-based; settings: HCC 2998, 48 h
OVCAR-8 = assay: Growth inhibition of human OVCAR8 cells assessed as cell growth at 10 uM incubated for 48 hrs by sulforhodamine B assay relative to control; format: functional; settings: OVCAR-8, 48 h, read-out: Activity
[13] = read-out: LC50 (the source's name)
[14] = read-out: pLC50 (the source's name) (converted)

## COc1cc(Cl)cc(-c2nn(-c3cccc(NC(=O)c4cccc(C(F)(F)F)c4)c3)cc2-c2ccncc2)c1
SK-OV-3
  growth at 10 µM: 81.6%
SF-268
  growth at 10 µM: 77.3%
Hs-578T
  growth at 10 µM: 62.2%
LOX IMVI
  growth at 10 µM: 51.7%
UO-31
  growth at 0.01 µM: 58%
M14 [1]
  growth at 0.01 µM: 101%
K562
  growth at 10 µM: 26%
OVCAR-4 [2]
  growth at 10 µM: 71.8%
OVCAR-4 [3]; read-out: GI50
  GI50: > 100 µM
OVCAR-4 [3]; [13]
  CC50: > 100 µM
OVCAR-4 [3]; read-out: TGI
  TGI: > 100 µM
OVCAR-4 [3]; read-out: pGI50 (converted)
  GI50: > 100 µM
OVCAR-4 [3]; [14]
  CC50: > 100 µM
OVCAR-4 [3]; read-out: pTGI (converted)
  TGI: > 100 µM
RPMI-8226
  growth at 10 µM: 31.5%
SR
  growth at 10 µM: 29.1%
ACHN [4]; read-out: GI50
  GI50: 7.21 µM
ACHN [4]; [13]
  CC50: > 100 µM
ACHN [4]; read-out: TGI
  TGI: > 100 µM
ACHN [4]; read-out: pGI50 (converted)
  GI50: 7.24 µM
ACHN [4]; [14]
  CC50: > 100 µM
ACHN [4]; read-out: pTGI (converted)
  TGI: > 100 µM
M14 [5]
  growth at 10 µM: 56.3%
HCC 2998 [6]
  growth at 10 µM: 54.6%
SF-295
  growth at 10 µM: 37.9%
MDA-MB-468 [7]
  growth at 10 µM: 47%
HOP-62
  growth at 10 µM: 71.6%
HCT-15
  growth at 10 µM: 33.2%
U-251 [8]
  IC50: 5.56 µM
U-251 [8]; read-out: GI50
  GI50: 5.58 µM
U-251 [8]; [13]
  CC50: > 100 µM
U-251 [8]; read-out: TGI
  TGI: > 100 µM
U-251 [8]; read-out: pGI50 (converted)
  GI50: 5.62 µM
U-251 [8]; [14]
  CC50: > 100 µM
U-251 [8]; read-out: pTGI (converted)
  TGI: > 100 µM
MDA-MB-435
  growth at 10 µM: 65.6%
Malme-3M
  growth at 10 µM: 92.4%
ACHN [9]
  growth at 100 µM: 40%
U-251 [10]
  growth at 1 µM: 65%
UACC-62
  growth at 0.1 µM: 94%
SNB-19
  growth at 10 µM: 82.2%
MDA-MB-468 [11]
  growth at 100 µM: 28%
UACC-257
  growth at 10 µM: 68.7%
NCI/ADR-RES
  growth at 10 µM: 46.6%
HL-60(TB)
  growth at 10 µM: 67.3%
HCC 2998 [12]; read-out: GI50
  GI50: 5.56 µM
HCC 2998 [12]; [13]
  CC50: > 100 µM
HCC 2998 [12]; read-out: TGI
  TGI: > 100 µM
HCC 2998 [12]; read-out: pGI50 (converted)
  GI50: 6.61 µM
HCC 2998 [12]; [14]
  CC50: > 100 µM
HCC 2998 [12]; read-out: pTGI (converted)
  TGI: > 100 µM
OVCAR-8
  growth at 10 µM: 42%

## COc1cc(Cl)cc(-c2nn(-c3cccc(NC(=O)Nc4cc(C(F)(F)F)cc(C(F)(F)F)c4)c3)cc2-c2ccncc2)c1
SK-OV-3
  growth at 10 µM: 6.84%
SF-268
  growth at 10 µM: 14.2%
Hs-578T
  growth at 10 µM: 5.82%
LOX IMVI
  growth at 10 µM: -24%
UO-31
  growth at 0.01 µM: 79%
M14 [1]
  growth at 0.01 µM: 96%
K562
  growth at 10 µM: 6.4%
OVCAR-4 [2]
  growth at 10 µM: 11.8%
OVCAR-4 [3]
  IC50: 0.5 µM
OVCAR-4 [3]; read-out: GI50
  GI50: 0.501 µM
OVCAR-4 [3]; [13]
  CC50: > 100 µM
OVCAR-4 [3]; read-out: TGI
  TGI: 21.4 µM
OVCAR-4 [3]; read-out: pGI50 (converted)
  GI50: 0.501 µM
OVCAR-4 [3]; [14]
  CC50: > 100 µM
OVCAR-4 [3]; read-out: pTGI (converted)
  TGI: 26.9 µM
RPMI-8226
  growth at 10 µM: -17.5%
SR
  growth at 10 µM: -37.9%
ACHN [4]
  IC50: 0.4 µM
ACHN [4]; read-out: GI50
  GI50: 0.397 µM
ACHN [4]; [13]
  CC50: > 100 µM
ACHN [4]; read-out: TGI
  TGI: 12.5 µM
ACHN [4]; read-out: pGI50 (converted)
  GI50: 0.398 µM
ACHN [4]; [14]
  CC50: > 100 µM
ACHN [4]; read-out: pTGI (converted)
  TGI: 12.6 µM
M14 [5]
  growth at 10 µM: 1.22%
HCC 2998 [6]
  growth at 10 µM: 9.5%
SF-295
  growth at 10 µM: -43.2%
MDA-MB-468 [7]
  growth at 10 µM: -2.95%
HOP-62
  growth at 10 µM: -41%
HCT-15
  growth at 10 µM: 6.21%
U-251 [8]
  IC50: 0.32 µM
U-251 [8]; read-out: GI50
  GI50: 0.324 µM
U-251 [8]; [13]
  CC50: 0.043 µM
U-251 [8]; read-out: TGI
  TGI: 1.31 µM
U-251 [8]; read-out: pGI50 (converted)
  GI50: 0.324 µM
U-251 [8]; [14]
  CC50: 4.37 µM
U-251 [8]; read-out: pTGI (converted)
  TGI: 1.32 µM
MDA-MB-435
  growth at 10 µM: -19.4%
Malme-3M
  growth at 10 µM: -19.2%
ACHN [9]
  growth at 100 µM: -38%
U-251 [10]
  growth at 1 µM: 11%
UACC-62
  growth at 0.1 µM: 92%
SNB-19
  growth at 10 µM: 26.1%
MDA-MB-468 [11]
  growth at 100 µM: -40%
UACC-257
  growth at 10 µM: -25.6%
NCI/ADR-RES
  growth at 10 µM: 2.37%
HL-60(TB)
  growth at 10 µM: -20.1%
HCC 2998 [12]
  IC50: 0.62 µM
HCC 2998 [12]; read-out: GI50
  GI50: 0.622 µM
HCC 2998 [12]; read-out: TGI
  TGI: 4.95 µM
HCC 2998 [12]; read-out: pGI50 (converted)
  GI50: 0.617 µM
HCC 2998 [12]; [14]
  CC50: 42.7 µM
HCC 2998 [12]; read-out: pTGI (converted)
  TGI: 5.01 µM
OVCAR-8
  growth at 10 µM: -2.46%
